From patent US8293796B2, “Modulator” (University College London, priority 2004, dated 2012)
Entries after “also recorded” stand apart in the source; their conditions may differ. Where two headings read alike, the source gives them in different places.

Legend:
wildtype mice = test: hypothermia and hypomotility (temperature and 5 minute motility in openfield activity chamber) in wildtype mice; type: in vivo, mouse
Experimental: Many CB1 agonists are known to induce psychotrophic associated “tetrad effects” due to central binding to CB receptors [Howlett, A. C. et al, International Union of Pharmacology. XXVII, Pharmacol. Rev. 2002, 54, 161-202]. Studies were undertaken to investigate whether the compounds of the present invention also bound to central CB1 receptors. This is assessed by measuring the ability of the compounds to induce sedation, ptosis, hypomotility, catalepsy and hypothermia in normal mice [Brooks, J. W. et al, Eur. J. Pharmacol. 2002, 439, 83-92], following i.v., i.p. and oral administration.
A CNS excluded compound provides a tool for examining if a component of a cannabinoid anti-spastic effect is mediated via peripheral CB receptors. […] As stated above there is no established role for peripheral cannabinoid receptors in the control of spasticity, however, spasticity is likely to be a product of nerve damage in the spinal cord, at least in EAE, [Baker, D. et al, FASEB J. 2001, 15, 300-302; Baker, D. et al, J. Neuroimmunol. 1990, 28, 261-270] and aberrant signals to and from the musculature are likely, at least in part to contribute to the muscle spasms occurring in spasticity.

CREAE mice = test: assessment of spasticity in CREAE mice (resistance to full flexion of hindlimbs against a strain gauge); type: in vivo, mouse
Experimental: Spasticity developed following the development of chronic EAE induced by injection of mouse spinal cord homogenate in Freund's complete adjuvant on day 0 & 7. This occurred 60-80 days post-induction in wildtype ABH.Cnr1+/+ mice and 30-40 days post-induction in CB1 receptor gene (Cnr1)-deficient ABH.Cnr1−/− mice). Spasticity was assessed by resistance to full flexion of hindlimbs against a strain gauge [Baker et al 2000], before and after treatment with either the full CB1/CB2 agonist CP55,940 or full CB1/CB2/“CB3” agonist injected intraperitoneally or compound (16) injected intravenously in vehicle (alcohol:cremophor:PBS (1:1:18)). […] Statistical analysis was performed on raw data and were analysed pairwise from baseline levels (*** P<0.001).
Further studies were undertaken using cannabinoid knockout mice, including CB1, CB2, VR-1, FAAH and conditional CB1 knockout mice. […] Spasticity is assessed (n=6-7/group) by resistance to hindlimb flexion using a strain gauge [Baker, D. et al, Nature 2000, 404, 84-87]. Animals serve as their own controls and will be analysed in a pairwise fashion. […] Low doses of CB1 agonists and CNS active CP55,940, as control, are locally (subcutaneous, intra-muscularly) administered into spastic ABH mice and the lack of activity in a contralateral limb analysed [Fox, A. et al, Pain 2001, 92, 91-100]. […]

CB1 receptor = target: T1, CB1 receptor (Mus musculus, UniProt P47746); test: vas deferens inhibition of contractions (cannabinoid receptor modulating activity)
T1 construct: from tissue; host or cells: mouse vas deferens (isolated tissue preparation)
T1 sequence (P47746 whole entry): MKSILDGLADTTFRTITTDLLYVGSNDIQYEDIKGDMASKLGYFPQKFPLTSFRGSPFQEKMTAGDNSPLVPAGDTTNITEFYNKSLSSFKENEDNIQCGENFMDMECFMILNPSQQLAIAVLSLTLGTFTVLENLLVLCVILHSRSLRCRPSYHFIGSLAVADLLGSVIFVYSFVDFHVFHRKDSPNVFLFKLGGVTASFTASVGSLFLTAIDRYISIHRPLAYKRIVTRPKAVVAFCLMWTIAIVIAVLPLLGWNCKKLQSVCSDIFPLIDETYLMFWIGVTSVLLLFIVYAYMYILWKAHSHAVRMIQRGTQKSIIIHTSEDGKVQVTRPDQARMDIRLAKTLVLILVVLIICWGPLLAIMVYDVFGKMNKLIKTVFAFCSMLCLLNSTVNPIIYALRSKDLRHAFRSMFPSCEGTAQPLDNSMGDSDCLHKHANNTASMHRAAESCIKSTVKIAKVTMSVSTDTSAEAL

Compound	CNS effects: temperature and motility (wildtype mice; wildtype mice, 20 min after injection, dose not given)	anti-spastic activity (CREAE mice; administered in PBS alone (not shown))	anti-spastic activity (CREAE mice; wildtype ABH mice with CREAE, injected intravenously in alcohol:cremophor:PBS (1:1:18), 10 minutes after administration)	effect of CB1 antagonist SR141716A on the compound's effect in vas deferens (CB1 receptor; in presence of SR141716A)	IC50 (CB1 receptor; mouse vas deferens preparation, FIG. 1, read-out: IC50, vas deferens preparation)	IC50 (CB1 receptor; rat vas deferens, FIG. 1 legend, read-out: IC50, inhibition of contractions)	CNS effects: hypothermia and hypomotility (wildtype mice; wildtype mice, 20 mg/kg i.v.)	CNS effects: hypothermia and hypomotility (wildtype mice; wildtype/normal mice, 1 mg/kg, 20 min after injection, 1 mg/kg)
Cc1c(C(=O)c2cccc3ccccc23)c2cccc3c2n1[C@H](CN1CCOCC1)CO3 [R(+)WIN55,212, reference compound]	induced typical cannabinmimetic effects							
CC(CO)NC(=O)c1cccc(/C=C\CCCC(=O)N(C)C)c1 (racemic) [Compound 16, 3-(5-Dimethylcarbamoyl-pent-1-enyl)-N-(2-hydroxy-1-methyl-ethyl)benzamide]		active	significant anti-spastic activity; also recorded: marked effect on spasticity; also recorded: selective inhibition of spasticity without producing CNS effects	neutralised by the CB1-antagonist SR141716A; also recorded: inhibited by the selective CB1 antagonist SR141716A	~1 nM	~0.1 nM	inactive	inactive; also recorded: no hypothermia or hypomotility was observed
